The source of these data is US8623845B1, “Pharmaceutical composition for preventing or treating Diabetes mellitus comprising bisphophonates” (Metacine, Inc., priority 2012, dated 2014).

One experiment addresses T1, PTP-1B (Homo sapiens, UniProt P18031).
T1 sequence (P18031 1-435): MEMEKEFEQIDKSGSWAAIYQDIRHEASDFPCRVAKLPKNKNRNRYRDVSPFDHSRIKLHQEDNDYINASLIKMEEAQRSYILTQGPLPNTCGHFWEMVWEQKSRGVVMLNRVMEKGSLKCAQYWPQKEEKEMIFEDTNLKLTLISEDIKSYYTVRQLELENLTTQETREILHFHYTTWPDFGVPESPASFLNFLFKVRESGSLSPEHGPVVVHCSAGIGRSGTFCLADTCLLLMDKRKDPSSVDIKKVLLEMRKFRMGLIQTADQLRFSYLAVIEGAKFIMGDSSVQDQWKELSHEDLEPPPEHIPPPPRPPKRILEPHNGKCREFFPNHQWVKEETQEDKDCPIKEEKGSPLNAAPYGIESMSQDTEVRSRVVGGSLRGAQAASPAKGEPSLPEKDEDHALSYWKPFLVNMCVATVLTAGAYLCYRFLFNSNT
As to the kind of experiment: Inhibition of binding PTP-1B with IR (protein chip, anti-IR phosphorylation antibody). The settings on record: mean±SD, n=6. Format: biochemical. The procedure: IR molecules stood for 1 hour at 30° C. to induce phosphorylation, and each 1 μl of IR molecules were fixed with protein chips(PeproTech) at 4° C. The protein chips were washed with washing buffer for 10 minutes, and blocked with blocking buffer(3% BSA in PBS, pH 7.4) at room temperature for 1 hour followed by washing with washing buffer. Each sample was as follow:
0. Blank control(C), 0.5 μl PEG (10%, polyethylene glycol)+0.5 μl PTP-1B buffer;
1. Negative control(N), 0.5 μl PEG (10%)+0.5 μl PTP-1B;
2. Positive control(P), 0.5 μl Na3VO4(sodium orthovanadate; 1 mM, pH 10)+0.5 μl PTP-1B;
3. Experimental group(ZA), 0.5 μl ZA (5 μM)+0.5 μl PTP-1B
The protein chips were washed for 10 minutes, and each was treated with 1 μl of anti-IR phosphorylation antibodies diluted by dilution buffer in 1/100 followed by incubating for 1 hour at 30° C. And then, it was washed with washing buffer for 10 minutes, and each was treated with […] of Cy5-fluorescent coupled rabbit anti-IgG antibodies diluted by dilution buffer in 1/100 followed by incubating for 1 hour at 30° C. They were washed for 10 minutes, scanned by microarray scanner system to analyze to GraphPad Prism 4 software.
The results are presented as the mean±SD(%). Statistical analysis was performed using Student's t-test, and P<0.05 was considered as a significance (n=6).

In the next experiment the test system is Rat pancreatic islets. Put plainly: Insulin secretion level by hyperglycemia stimulation in primary pancreatic islets. It counts as cell-based, Sprague Dawley rats. The settings on record: 5 μM ZA for 3 days, mean±SD of five experiments.

Description for Rat pancreatic islets: Rat pancreatic islets were isolated from Sprague Dawley rats (200˜230 g) by digesting the pancreatic duct with collagenase P (1 mg/ml in PBS). After digestion, the islets were separated with Histopaque-1077 (Sigma, St. Louis, Mo.). The primary islets were cultured in RPMI 1640 medium containing 10% fetal bovine serum (FBS), penicillin (100 IU/ml) and streptomycin (100 g/ml). Equal number of primary islet clusters was transferred into micro-centrifuge tube with 1 ml of 10% RPMI 1640, and incubated under normal (5.5 mM glucose) and glucotoxic conditions with or without Zoledronic acid (5 μM) for 3 days. Exposure to glucotoxic conditions was followed by treating with 0.6 mM free fatty acid (FFA; palmitate/oleate, 2:1) and 25 mM glucose in RPMI 1640 with 10% FBS. FFA were complexed with 5% fatty acid-free BSA in PBS. Cultured islets were washed in Krebs-Ringer-bicarbonate (KRB) buffer (130 mM NaCl, 3.6 mM KCl, 1.5 mM CaCl2, 0.5 mM MgSO4, 0.5 mM KH2PO4. 2.0 mM NaHCO2 and 10 mM HEPES) and incubated in KRB buffer for 1 hour followed by further incubation in KRB buffer containing 5.5 mM glucose for 1 hour. Samples were centrifuged at 12,000 g for 1 min and the supernatant was collected for measurement. […] Insulin concentrations from two supernatants removed at two different conditions were measured with a RIA kit (Linco) The results are presented as the mean±SD of five independent experiments. […]

Consider `[Na+].[Na+].[Na+].[O]=[V]([O-])([O-])[O-]` [Na3VO4, sodium orthovanadate], for which the “inhibition effect of binding PTP-1B with IR” value at PTP-1B (positive control, Na3VO4 1 mM, pH 10) is recorded as 87±4%.
What is called inhibition is the drop in the measured response relative to a control, in per cent. Turning to `O=P(O)(O)C(O)(Cn1ccnc1)P(=O)(O)O` [ZA, [1-hydroxy-2-(1H-imidazol-1-yl)ethane-1,1-diyl]bis(phosphonic acid)], on PTP-1B (ZA 5 μM, read-out: inhibition effect of binding PTP-1B with IR), the inhibition at 5 µM turned out to be 89 ± 21%. The insulin secretion level in the experiment with Rat pancreatic islets (diabetes mellitus condition (25 mM glucose, glucotoxic), untreated reduced to 52±19% compared to normal condition) came to 72±34%; with Rat pancreatic islets (normal condition (5.5 mM glucose), untreated = 100±17%) it was 82±43%.
